Assay [1] concerns the target Vascular endothelial growth factor receptor 2 (Homo sapiens, UniProt P35968). The assay is described as follows: Inhibition VEGFR2 (unknown origin) for 30 mins by ELISA. A general note: An ELISA detects its analyte on a solid surface through an enzyme-linked reagent.
In assay [2] the target is Histone deacetylase. The assay is described as follows: Inhibition of human HDAC in HeLa cell nuclear extract by fluorometric assay using Fluor de Lys substrate. The assay is classed as protein assay.
The subject of assay [3] is MCF7. Briefly: Antiproliferative activity against human MCF7 cells after 48 hrs by MTT assay. Format: functional, cell-based. Particulars: MCF7, 48 h. For orientation: Formazan colour is commonly taken as a measure of viable cells.
Assay [4] addresses Histone deacetylase 1 (Homo sapiens, UniProt Q13547). Briefly: Inhibition of human recombinant HDAC1 by fluorometric assay using Fluor de Lys substrate.
The target of assay [5] is Histone deacetylase 2 (Homo sapiens, UniProt Q92769). The assay is described as follows: Inhibition of human recombinant HDAC2 by fluorometric assay using Fluor de Lys substrate.
Chain of Histone deacetylase 2 (Q92769 whole entry): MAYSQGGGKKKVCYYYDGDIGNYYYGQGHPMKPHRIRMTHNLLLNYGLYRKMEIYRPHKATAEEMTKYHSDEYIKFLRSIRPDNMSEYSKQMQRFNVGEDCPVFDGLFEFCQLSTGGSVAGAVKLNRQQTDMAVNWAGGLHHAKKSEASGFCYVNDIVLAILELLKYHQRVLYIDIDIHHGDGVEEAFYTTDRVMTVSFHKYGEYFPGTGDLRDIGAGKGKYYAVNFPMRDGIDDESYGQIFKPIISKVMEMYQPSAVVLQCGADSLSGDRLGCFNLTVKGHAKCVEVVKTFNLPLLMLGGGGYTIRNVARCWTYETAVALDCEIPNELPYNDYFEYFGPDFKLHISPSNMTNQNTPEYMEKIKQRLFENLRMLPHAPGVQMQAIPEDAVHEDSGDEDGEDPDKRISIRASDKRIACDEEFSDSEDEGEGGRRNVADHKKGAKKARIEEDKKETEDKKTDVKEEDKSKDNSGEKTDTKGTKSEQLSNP
For assay [6], the target named is T1, Protein deacetylase HDAC6 (Homo sapiens, UniProt Q9UBN7).
T1 sequence (Q9UBN7 whole entry): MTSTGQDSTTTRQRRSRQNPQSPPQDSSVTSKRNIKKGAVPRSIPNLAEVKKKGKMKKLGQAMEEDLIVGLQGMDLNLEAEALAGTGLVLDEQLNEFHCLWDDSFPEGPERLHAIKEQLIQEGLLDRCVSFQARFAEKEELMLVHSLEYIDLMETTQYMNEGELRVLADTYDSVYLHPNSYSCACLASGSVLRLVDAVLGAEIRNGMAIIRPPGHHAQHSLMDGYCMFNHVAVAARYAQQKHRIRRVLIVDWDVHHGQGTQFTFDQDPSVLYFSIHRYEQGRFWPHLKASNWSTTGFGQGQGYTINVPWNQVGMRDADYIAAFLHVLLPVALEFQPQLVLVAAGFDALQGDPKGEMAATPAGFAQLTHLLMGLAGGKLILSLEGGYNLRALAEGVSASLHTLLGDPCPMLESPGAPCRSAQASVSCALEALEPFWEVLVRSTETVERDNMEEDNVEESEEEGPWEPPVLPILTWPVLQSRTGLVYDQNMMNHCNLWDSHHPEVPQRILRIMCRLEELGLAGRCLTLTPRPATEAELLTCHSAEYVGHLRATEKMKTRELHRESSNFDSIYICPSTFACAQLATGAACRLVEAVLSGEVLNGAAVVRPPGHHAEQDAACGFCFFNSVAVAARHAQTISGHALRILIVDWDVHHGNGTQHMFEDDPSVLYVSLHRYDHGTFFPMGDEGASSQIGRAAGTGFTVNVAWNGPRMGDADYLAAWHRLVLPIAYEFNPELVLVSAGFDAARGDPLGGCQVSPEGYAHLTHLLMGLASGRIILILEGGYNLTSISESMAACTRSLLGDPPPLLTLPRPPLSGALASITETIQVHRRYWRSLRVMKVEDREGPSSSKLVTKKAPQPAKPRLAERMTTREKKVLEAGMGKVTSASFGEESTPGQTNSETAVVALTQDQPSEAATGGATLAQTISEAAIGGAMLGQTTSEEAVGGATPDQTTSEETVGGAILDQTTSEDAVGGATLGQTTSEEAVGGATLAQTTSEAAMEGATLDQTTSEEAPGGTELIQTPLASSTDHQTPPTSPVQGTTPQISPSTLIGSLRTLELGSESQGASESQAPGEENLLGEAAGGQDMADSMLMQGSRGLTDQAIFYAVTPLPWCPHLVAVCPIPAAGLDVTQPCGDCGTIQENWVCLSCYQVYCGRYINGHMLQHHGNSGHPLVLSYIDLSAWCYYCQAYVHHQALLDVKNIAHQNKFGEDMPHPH
Briefly: Inhibition of human recombinant HDAC6 by fluorometric assay using Fluor de Lys substrate.

Assay [7] addresses T2, Histone deacetylase 8 (Homo sapiens, UniProt Q9BY41).
T2 sequence (Q9BY41 whole entry): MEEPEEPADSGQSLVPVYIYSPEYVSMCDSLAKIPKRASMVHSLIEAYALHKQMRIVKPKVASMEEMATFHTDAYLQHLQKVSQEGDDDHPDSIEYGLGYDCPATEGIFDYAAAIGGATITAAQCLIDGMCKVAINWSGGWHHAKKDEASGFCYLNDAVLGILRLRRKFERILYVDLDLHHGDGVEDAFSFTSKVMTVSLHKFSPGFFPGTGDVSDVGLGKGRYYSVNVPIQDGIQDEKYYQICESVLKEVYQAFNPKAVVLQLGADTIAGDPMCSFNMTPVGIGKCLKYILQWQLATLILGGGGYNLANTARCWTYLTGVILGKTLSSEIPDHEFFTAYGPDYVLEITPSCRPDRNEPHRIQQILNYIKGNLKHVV
The assay is described as follows: Inhibition of human recombinant HDAC8 by fluorometric assay using Fluor de Lys substrate.

The subject of assay [8] is HepG2. Briefly: Antiproliferative activity against human HepG2 cells after 48 hrs by MTT assay. The assay is classed as functional, cell-based. The note with it: HepG2, 48 h.
In assay [9] the test system is A549. The assay is described as follows: Antiproliferative activity against human A549 cells after 48 hrs by MTT assay. Particulars: A549, 48 h. The assay is classed as functional, cell-based.
Assay [10] has as its system HCT-116. The assay is described as follows: Antiproliferative activity against human HCT116 cells after 48 hrs by MTT assay. Format: functional, cell-based. The note with it: HCT-116, 48 h.

pIC50: −log10 of the molar value.

Chain of Vascular endothelial growth factor receptor 2 (P35968 whole entry): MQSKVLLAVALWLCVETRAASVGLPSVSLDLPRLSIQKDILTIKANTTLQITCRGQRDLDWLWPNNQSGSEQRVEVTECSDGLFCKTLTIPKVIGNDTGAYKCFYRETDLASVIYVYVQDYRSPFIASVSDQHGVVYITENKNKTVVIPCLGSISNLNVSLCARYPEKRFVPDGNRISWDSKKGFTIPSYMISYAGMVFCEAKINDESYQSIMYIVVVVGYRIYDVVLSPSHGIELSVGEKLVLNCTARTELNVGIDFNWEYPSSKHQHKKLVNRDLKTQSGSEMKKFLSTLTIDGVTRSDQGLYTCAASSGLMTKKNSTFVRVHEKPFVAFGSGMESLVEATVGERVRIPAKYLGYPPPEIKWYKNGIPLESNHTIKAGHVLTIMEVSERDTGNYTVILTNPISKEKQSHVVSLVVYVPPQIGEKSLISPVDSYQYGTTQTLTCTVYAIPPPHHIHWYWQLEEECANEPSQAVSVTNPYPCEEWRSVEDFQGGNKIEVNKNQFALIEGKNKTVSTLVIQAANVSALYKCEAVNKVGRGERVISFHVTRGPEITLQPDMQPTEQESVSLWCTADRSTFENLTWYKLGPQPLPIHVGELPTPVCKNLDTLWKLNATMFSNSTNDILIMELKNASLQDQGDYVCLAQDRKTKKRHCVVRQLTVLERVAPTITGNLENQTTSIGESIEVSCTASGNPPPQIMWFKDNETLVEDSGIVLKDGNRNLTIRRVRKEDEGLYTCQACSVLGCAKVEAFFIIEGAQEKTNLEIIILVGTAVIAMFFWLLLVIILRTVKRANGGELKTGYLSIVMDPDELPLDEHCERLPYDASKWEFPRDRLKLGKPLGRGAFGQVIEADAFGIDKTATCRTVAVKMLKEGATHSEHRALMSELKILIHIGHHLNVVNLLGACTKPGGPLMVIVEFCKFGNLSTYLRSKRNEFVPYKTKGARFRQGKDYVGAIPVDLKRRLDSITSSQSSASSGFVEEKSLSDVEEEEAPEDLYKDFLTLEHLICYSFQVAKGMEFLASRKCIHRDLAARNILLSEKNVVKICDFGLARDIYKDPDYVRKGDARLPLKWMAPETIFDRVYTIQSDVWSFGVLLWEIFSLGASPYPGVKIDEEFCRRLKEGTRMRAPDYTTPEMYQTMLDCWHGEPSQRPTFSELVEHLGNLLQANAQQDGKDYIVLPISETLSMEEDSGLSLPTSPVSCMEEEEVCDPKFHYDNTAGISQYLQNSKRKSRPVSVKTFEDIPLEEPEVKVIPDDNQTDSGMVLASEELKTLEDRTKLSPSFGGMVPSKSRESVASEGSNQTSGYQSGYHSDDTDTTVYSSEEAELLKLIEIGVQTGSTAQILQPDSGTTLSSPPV
Chain of Histone deacetylase 1 (Q13547 whole entry): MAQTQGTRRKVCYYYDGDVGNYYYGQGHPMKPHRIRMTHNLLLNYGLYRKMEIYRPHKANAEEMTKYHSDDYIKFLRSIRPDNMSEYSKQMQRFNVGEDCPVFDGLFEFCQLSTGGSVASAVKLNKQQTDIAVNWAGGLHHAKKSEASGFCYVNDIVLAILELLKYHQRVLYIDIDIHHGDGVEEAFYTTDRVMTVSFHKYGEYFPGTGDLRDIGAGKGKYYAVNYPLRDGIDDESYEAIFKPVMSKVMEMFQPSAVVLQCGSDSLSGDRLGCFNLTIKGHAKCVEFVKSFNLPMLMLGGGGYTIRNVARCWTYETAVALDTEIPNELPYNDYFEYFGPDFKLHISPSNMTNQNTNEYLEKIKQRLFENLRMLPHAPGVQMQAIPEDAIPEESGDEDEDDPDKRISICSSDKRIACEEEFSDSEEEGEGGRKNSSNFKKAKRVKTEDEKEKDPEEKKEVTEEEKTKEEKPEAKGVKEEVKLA

For the compound `COc1cc2ncnc(Nc3cccc(Cl)c3)c2cc1OCCC(=O)NO`, the pIC50 is 6.32 in [1] and under 4.00 in assay [3]. In addition, the IC50 in assay [2] came to 645 nM.

Consider `COc1cc2ncnc(Nc3cccc(Cl)c3)c2cc1OCCCC(=O)NO`, for which the pIC50 was 6.45 in [1] and 4.19 in assay [3]. This compound also showed an IC50 in assay [2] of 121 nM.

Consider `COc1cc2ncnc(Nc3cccc(Cl)c3)c2cc1OCCCCC(=O)NO`, for which the pIC50 in assay [1] is 6.21; in [3], 5.07. The compound further came in with an IC50 in assay [2] of 17 nM.

As to `COc1cc2ncnc(Nc3cccc(Cl)c3)c2cc1OCCCCCC(=O)NO`, the pIC50 in assay [1] was 6.30; in assay [3], 5.49. The compound further returned a 50% inhibitory concentration (IC50) in [2] of 5.4 nM.

Turning to `COc1cc2ncnc(Nc3cccc(Br)c3)c2cc1OCCC(=O)NO`, the pIC50 was 6.20 in [1] and under 4.00 in [3]. Moreover, the IC50 in assay [2] is 531 nM.

Consider `COc1cc2ncnc(Nc3cccc(Br)c3)c2cc1OCCCC(=O)NO`, for which the pIC50 in [1] was 6.36; in assay [3] it was 4.16. In assay [2], this compound displayed an IC50 of 97 nM.

On to `COc1cc2ncnc(Nc3cccc(Br)c3)c2cc1OCCCCC(=O)NO`, for which the pIC50 was 6.38 in [1] and 5.07 in assay [3]. Also, the IC50 in assay [2] came out at 15 nM.

In the case of `COc1cc2ncnc(Nc3cccc(Br)c3)c2cc1OCCCCCC(=O)NO`, the pIC50 in assay [1] was 6.34; in assay [3], 5.55. Also, the IC50 in assay [2] is 4.5 nM.

In the case of `COc1cc2ncnc(Nc3ccc(Cl)cc3Cl)c2cc1OCCC(=O)NO`, the pIC50 is 6.43 in assay [1] and 4.02 in [3]. In addition, the IC50 in [2] was 215 nM.

Turning to `COc1cc2ncnc(Nc3ccc(Cl)cc3Cl)c2cc1OCCCC(=O)NO`, the values for the pIC50 in assay [1] and in [3] were 6.86 and 4.25, respectively. Besides, the IC50 in assay [2] was 86 nM.

For the compound `COc1cc2ncnc(Nc3ccc(Cl)cc3Cl)c2cc1OCCCCC(=O)NO`, the pIC50 in assay [1] is 6.94; in assay [3], 5.19. The compound also had an IC50 in assay [2] of 14 nM.

Regarding `COc1cc2ncnc(Nc3ccc(Cl)cc3Cl)c2cc1OCCCCCC(=O)NO`, the negative-log IC50 (pIC50) in [1] is 7.08; in assay [3] it was 5.92; in assay [4], 8.46; in assay [5] it was 8.17; in [6] it was 7.59; in [7] it was 8.28. Besides, the values for the pIC50 in [8], in assay [9] and in [10] were 5.57, 5.27 and 5.74, respectively. Further, the IC50 in assay [2] is listed as 2.8 nM.

Take `COc1cc2ncnc(Nc3cc(Cl)ccc3Cl)c2cc1OCCC(=O)NO`: the pIC50 is 5.90 in assay [1] and under 4.00 in [3]. Besides, the 50% inhibitory concentration (IC50) in assay [2] is recorded as 348 nM.

As for `COc1cc2ncnc(Nc3cc(Cl)ccc3Cl)c2cc1OCCCC(=O)NO`, the pIC50 was 5.67 in assay [1] and 4.35 in [3]. This compound also had an IC50 in assay [2] of 57 nM.

For the compound `COc1cc2ncnc(Nc3cc(Cl)ccc3Cl)c2cc1OCCCCC(=O)NO`, the pIC50 in assay [1] is 5.28; in [3], 4.86. This compound also yielded an IC50 in assay [2] of 21 nM.

As for `COc1cc2ncnc(Nc3cc(Cl)ccc3Cl)c2cc1OCCCCCC(=O)NO`, the pIC50 in [1] is 5.61; in [3], 5.40. Moreover, in [2], the IC50 is given as 8.4 nM.

For `COc1cc2/c(=N/c3ccc(Br)cc3F)nc[nH]c2cc1OCC1CCN(C)CC1` [VANDETANIB], the IC50 in assay [2] is over 10000 nM. The negative-log IC50 (pIC50) in assay [3] is 4.73.

In turn, `O=C(CCCCCCC(=O)Nc1ccccc1)NO` [VORINOSTAT] showed a negative logarithm of the IC50 (pIC50) in [1] of under 5.00.

Usually pIC50 stands for −log10 of the IC50, conventionally taken in molar units. One may read the IC50 as the point on the concentration scale where inhibition reaches its midpoint. Low values mean greater potency in that assay, high ones weaker potency in that assay.
